How the values were obtained:
KIF5B-RET-BaF3 = target: T1, KIF5B-RET-BaF3 (Homo sapiens, UniProt P07949); test: Growth inhibition of KIF5B-RET-BaF3 cells stably transfected with kinase (MTS); assay type: cell-based; details: 48 h, read-out: KIF5B-RET (IC50/nM)
T1 construct: fused on or other part: P33176 (Kinesin-1 heavy chain)
Protocol: (§1) Growth inhibitory activity of compounds on cell lines stably transfected with kinase
(§2) The activity of compounds against kinase RET is evaluated by their effect of inhibiting growth of cell lines stably transfected with kinase CCDC6-RET-BaF3, KIF5B-RET-BaF3, and wild-type BaF3 (Proc. Natl. Acad. Sci. USA., 2006, 103, 3153-8.). The growth of the cell lines stably transfected with kinase CCDC6-RET-BaF3, KIF5B-RET-BaF3 depends on their kinase activity. If a compound can inhibit the activity of the kinase RET per se or the activity of the RET signaling pathway, the compound can inhibit the growth of BaF3 cells stably transfected with kinase. […] Therefore, a larger ratio between IC50 of a compound to wild-type BaF3 and IC50 of the compound to the cell lines stably transfected with kinase CCDC6-RET-BaF3, KIF5B-RET-BaF3 indicates better targeting.
(§3) The specific test method is given as follows:
(§4) 1) Medium: DMEM (Dulbecco's modified eagle medium) or RPMI 1640 (containing 10% fetal bovine serum, 100 μg/mL ampicillin, 100 μg/mL streptomycin).
(§5) 2) Reagents: MTS reaction solution (containing 2 mg/mL of MTS [3-(4,5-dimethylthiazol-2-yl)-5-(3-carboxymethoxyphenyl)-2-(4-sulfophenyl)-2H-tetrazolium, inner Salt]; 100 μg/mL PES (phenazine […])).
(§6) 3) Compound test: cells stably transfected with kinase (CCDC6-RET-BaF3, KIF5B-RET-BaF3) or wild-type BaF3 cells (2×10^4 cells/well) were incubated into a 96-well culture plate, the volume of cell culture fluid was 90 μL, and then 10 μL of the compound at each gradient concentration was added (the highest concentration was 10 μM, which was diluted stepwise by ⅓, and 8 concentration points were set in total; the system contained 0.1% DMSO (dimethyl sulfoxide)). The cell plate with uniformly mixed compound was cultured in a cell culture incubator (37° C.; 5% CO2) for 48 h, then 20 μL of MTS reaction solution was added, uniformly mixed and incubated in the cell culture incubator (37° C.; 5% CO2) for 1-4 hr, OD values at 490 nm were measured by a microplate reader (VARIOSKAN FLASH, Thermo). Three parallels were set in each group of experiments, with 0.1% (a final concentration) DMSO as a negative control, and a medium without cells or compounds as a blank control. The cell growth inhibition rate was calculated by the following formula: Cell growth inhibition rate %=1−(ODexperimental group−ODblank group)/(ODnegative group−ODblank group)×100%
(§7) 4) IC50 calculation: The semi-inhibitory concentration of the compound acting on cell growth was calculated using GradPad Prism 5 software according to the measured cell growth inhibition rate.

CCDC6-RET-BaF3 = target: T2, CCDC6-RET-BaF3 (Homo sapiens, UniProt P07949); test: Growth inhibition of CCDC6-RET-BaF3 cells stably transfected with kinase (MTS); assay type: cell-based; details: 48 h, read-out: CCDC6-RET (IC50/nM)
T2 construct: fused on or other part: Q16204 (Coiled-coil domain-containing protein 6)
Protocol: as §1, §2, §3, §4, §5, §6, §7

T1 sequence (P07949 whole entry, change not shown, the tested form may be a part): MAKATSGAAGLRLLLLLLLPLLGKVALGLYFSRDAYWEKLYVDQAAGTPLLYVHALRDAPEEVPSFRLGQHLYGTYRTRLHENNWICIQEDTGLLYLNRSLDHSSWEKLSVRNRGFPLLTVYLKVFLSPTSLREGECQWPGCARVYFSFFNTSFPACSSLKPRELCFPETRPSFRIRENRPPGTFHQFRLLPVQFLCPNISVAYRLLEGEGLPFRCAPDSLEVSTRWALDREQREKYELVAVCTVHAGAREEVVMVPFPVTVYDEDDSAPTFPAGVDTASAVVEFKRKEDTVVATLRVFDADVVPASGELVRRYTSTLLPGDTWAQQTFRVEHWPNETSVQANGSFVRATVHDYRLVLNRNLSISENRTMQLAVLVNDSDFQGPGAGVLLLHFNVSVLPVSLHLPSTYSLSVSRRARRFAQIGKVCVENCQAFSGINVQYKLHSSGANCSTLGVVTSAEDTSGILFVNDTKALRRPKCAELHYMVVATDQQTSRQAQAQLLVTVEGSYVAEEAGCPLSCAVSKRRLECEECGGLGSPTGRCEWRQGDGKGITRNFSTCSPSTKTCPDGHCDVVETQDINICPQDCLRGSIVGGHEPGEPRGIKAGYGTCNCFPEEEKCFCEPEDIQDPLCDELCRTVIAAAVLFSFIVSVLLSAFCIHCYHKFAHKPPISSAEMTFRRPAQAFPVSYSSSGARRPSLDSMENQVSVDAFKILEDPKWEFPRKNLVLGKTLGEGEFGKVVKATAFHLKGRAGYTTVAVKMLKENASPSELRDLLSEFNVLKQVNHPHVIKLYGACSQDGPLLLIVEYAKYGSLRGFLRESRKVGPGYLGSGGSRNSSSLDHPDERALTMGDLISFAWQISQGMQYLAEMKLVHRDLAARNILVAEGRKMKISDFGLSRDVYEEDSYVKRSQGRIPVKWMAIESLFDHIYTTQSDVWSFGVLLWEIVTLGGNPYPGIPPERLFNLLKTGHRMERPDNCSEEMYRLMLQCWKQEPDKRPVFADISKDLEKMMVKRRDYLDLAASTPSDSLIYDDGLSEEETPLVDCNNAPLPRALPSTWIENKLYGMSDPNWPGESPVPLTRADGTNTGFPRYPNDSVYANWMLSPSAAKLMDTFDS
T2 sequence (P07949 whole entry, change not shown, the tested form may be a part): as above

| Structure (SMILES) | GI50 (KIF5B-RET-BaF3) | GI50 (CCDC6-RET-BaF3) |
| --- | --- | --- |
| CCC(=O)NC1CCN(c2ccc(NC(=O)c3ccc(C)c(Oc4nc(-c5cccnc5)nc5c4cnn5C)c3)cc2C(F)(F)F)CC1 [II-v-12] | 118 nM | 364 nM |
| CC(=O)NC1CCN(c2ccc(NC(=O)c3ccc(C)c(Oc4nc(-c5ccncc5)nc5c4cnn5C)c3)cc2C(F)(F)F)CC1 [II-v-13] | 587 nM | 533 nM |
| CCS(=O)(=O)NC1CCN(c2ccc(NC(=O)c3ccc(C)c(Oc4nc(-c5cccnc5)nc5c4cnn5C)c3)cc2C(F)(F)F)CC1 [II-v-14] | 69.3 nM | 73.9 nM |
| CCS(=O)(=O)NC1CCN(c2ccc(NC(=O)c3ccc(C)c(Oc4nc(-c5ccncc5)nc5c4cnn5C)c3)cc2C(F)(F)F)CC1 [II-v-15] | 135 nM | 114 nM |
| CCC(=O)NCC1CCN(c2ccc(NC(=O)c3ccc(C)c(Oc4nc(-c5cccnc5)nc5[nH]ncc45)c3)cc2C(F)(F)F)CC1 [II-v-16] | 3070 nM | 2490 nM |
| CCC(=O)NCC1CCN(c2ccc(NC(=O)c3ccc(C)c(Oc4nc(-c5ccncc5)nc5[nH]ncc45)c3)cc2C(F)(F)F)CC1 [II-v-17] | 1040 nM | 900 nM |
| CN1CCN(Cc2ccc(C(=O)Nc3cccc(Oc4nc(-c5cccnc5)nc5cc[nH]c45)c3)cc2C(F)(F)F)CC1 [III-h-1] | 1540 nM | 2810 nM |
| CN1CCN(Cc2ccc(C(=O)Nc3cccc(Oc4nc(-c5ccncc5)nc5cc[nH]c45)c3)cc2C(F)(F)F)CC1 [III-h-2] | 16.4 nM | 16.8 nM |
| CN1CCN(Cc2ccc(C(=O)Nc3cccc(Oc4nc(-c5cccnc5)nc5ccn(C)c45)c3)cc2C(F)(F)F)CC1 [III-h-3] | 2140 nM | 4100 nM |
| CN1CCN(Cc2ccc(C(=O)Nc3cccc(Oc4nc(-c5ccncc5)nc5ccn(C)c45)c3)cc2C(F)(F)F)CC1 [III-h-4] | 180 nM | 195 nM |
| Cc1ccc(NC(=O)c2ccc(CN3CCN(C)CC3)c(C(F)(F)F)c2)cc1Oc1nc(-c2cccnc2)nc2cc[nH]c12 [III-i-1] | 2850 nM | 4110 nM |
| Cc1ccc(NC(=O)c2ccc(CN3CCN(C)CC3)c(C(F)(F)F)c2)cc1Oc1nc(-c2ccncc2)nc2cc[nH]c12 [III-i-2] | 774 nM | 1400 nM |
| Cc1ccc(NC(=O)c2ccc(CN3CCN(C)CC3)c(C(F)(F)F)c2)cc1Oc1nc(-c2cccnc2)nc2ccn(C)c12 [III-i-3] | 3630 nM | 4340 nM |
| Cc1ccc(NC(=O)c2ccc(CN3CCN(C)CC3)c(C(F)(F)F)c2)cc1Oc1nc(-c2ccncc2)nc2ccn(C)c12 [III-i-4] | 1330 nM | 2020 nM |
| Cc1ccc(Oc2nc(-c3cccnc3)nc3cc[nH]c23)cc1NC(=O)c1ccc(CN2CCN(C)CC2)c(C(F)(F)F)c1 [III-j-1] | 3250 nM | 5940 nM |
| Cc1ccc(Oc2nc(-c3ccncc3)nc3cc[nH]c23)cc1NC(=O)c1ccc(CN2CCN(C)CC2)c(C(F)(F)F)c1 [III-j-2] | 2.32 nM | 6.06 nM |
| Cc1ccc(Oc2nc(-c3cccnc3)nc3ccn(C)c23)cc1NC(=O)c1ccc(CN2CCN(C)CC2)c(C(F)(F)F)c1 [III-j-5] | 3100 nM | 4260 nM |
| Cc1ccc(Oc2nc(-c3ccncc3)nc3ccn(C)c23)cc1NC(=O)c1ccc(CN2CCN(C)CC2)c(C(F)(F)F)c1 [III-j-6] | 13.2 nM | 28 nM |
| Cc1ccc(-c2nc(Oc3ccc(Cl)c(NC(=O)c4ccc(CN5CCN(C)CC5)c(C(F)(F)F)c4)c3)c3[nH]ccc3n2)cc1 [III-k-15] | 2380 nM | 2200 nM |
| CN1CCN(Cc2ccc(NC(=O)c3cccc(Oc4nc(-c5ccncc5)nc5cc[nH]c45)c3)cc2C(F)(F)F)CC1 [III-l-2] | 5.71 nM | 22.7 nM |

| Structure (SMILES) | GI50 (KIF5B-RET-BaF3) | GI50 (CCDC6-RET-BaF3) |
| --- | --- | --- |
| CN1CCN(Cc2ccc(NC(=O)c3cccc(Oc4nc(-c5cccnc5)nc5ccn(C)c45)c3)cc2C(F)(F)F)CC1 [III-l-3] | 1540 nM | 1400 nM |
| CN1CCN(Cc2ccc(NC(=O)c3cccc(Oc4nc(-c5ccncc5)nc5ccn(C)c45)c3)cc2C(F)(F)F)CC1 [III-l-4] | 11.3 nM | 18.7 nM |
| Cc1ccc(C(=O)Nc2ccc(CN3CCN(C)CC3)c(C(F)(F)F)c2)cc1Oc1nc(-c2cccnc2)nc2cc[nH]c12 [III-m-1] | 2100 nM | 4500 nM |
| Cc1ccc(C(=O)Nc2ccc(CN3CCN(C)CC3)c(C(F)(F)F)c2)cc1Oc1nc(-c2ccncc2)nc2cc[nH]c12 [III-m-2] | 1310 nM | 3630 nM |
| Cc1ccc(C(=O)Nc2ccc(CN3CCN(C)CC3)c(C(F)(F)F)c2)cc1Oc1nc(-c2ccoc2)nc2ccn(C)c12 [III-m-17] | 2760 nM | 3150 nM |
| Cc1ccc(Oc2nc(-c3ccncc3)nc3cc[nH]c23)cc1C(=O)Nc1ccc(CN2CCN(C)CC2)c(C(F)(F)F)c1 [III-n-2] | 21 nM | 53.7 nM |
| Cc1ccc(Oc2nc(-c3ccncc3)nc3ccn(C)c23)cc1C(=O)Nc1ccc(CN2CCN(C)CC2)c(C(F)(F)F)c1 [III-n-4] | 17.2 nM | 43.1 nM |
| CN1CCN(Cc2cc(NC(=O)c3cccc(Oc4nc(-c5cccnc5)nc5ccn(C)c45)c3)cc(C(F)(F)F)c2)CC1 [III-p-3] | 3380 nM | 4530 nM |
| Cc1ccc(Oc2nc(-c3cccnc3)nc3cc[nH]c23)cc1C(=O)Nc1cc(CN2CCN(C)CC2)cc(C(F)(F)F)c1 [III-r-1] | 4770 nM | 4450 nM |
| CCC(=O)NC1CCN(c2ccc(NC(=O)c3ccc(C)c(Oc4nc(-c5ccncc5)nc5ccn(C)c45)c3)cc2C(F)(F)F)CC1 [III-v-8] | 4340 nM | 10900 nM |
| CC(=O)NC1CCN(c2ccc(NC(=O)c3ccc(C)c(Oc4nc(-c5ccncc5)nc5ccn(C)c45)c3)cc2C(F)(F)F)CC1 [III-v-9] | 1750 nM | 4210 nM |
| CCS(=O)(=O)NC1CCN(c2ccc(NC(=O)c3ccc(C)c(Oc4nc(-c5ccncc5)nc5ccn(C)c45)c3)cc2C(F)(F)F)CC1 [III-v-11] | 1460 nM | 3330 nM |
| CCC(=O)NCC1CCN(c2ccc(NC(=O)c3ccc(C)c(Oc4nc(-c5cccnc5)nc5cc[nH]c45)c3)cc2C(F)(F)F)CC1 [III-v-12] | 191 nM | 149 nM |
| Cc1ccc(NC(=O)c2cccc(C(F)(F)F)c2)cc1Oc1nc(-c2ccncc2)nc2nn(C)cc12 [IV-b-2] | 4170 nM | 5870 nM |
| Cc1ccc(Oc2nc(-c3ccncc3)nc3nn(C)cc23)cc1NC(=O)c1cccc(C(F)(F)F)c1 [IV-c-2] | 2840 nM | 1680 nM |
| Cc1ccc(Oc2nc(-c3ccccc3)nc3nn(C)cc23)cc1C(=O)Nc1ccc(CN2CCN(C)CC2)c(C(F)(F)F)c1 [IV-n-3] | 3540 nM | 4150 nM |
| Cc1ccc(Oc2nc(-c3cccc(Cl)c3)nc3nn(C)cc23)cc1C(=O)Nc1ccc(CN2CCN(C)CC2)c(C(F)(F)F)c1 [IV-n-4] | 1710 nM | 3900 nM |
| Cc1ccc(Oc2nc(-c3ccc(Cl)cc3)nc3nn(C)cc23)cc1C(=O)Nc1ccc(CN2CCN(C)CC2)c(C(F)(F)F)c1 [IV-n-5] | 2320 nM | 2960 nM |
| Cc1ccc(Oc2nc(-c3cccc(O)c3)nc3nn(C)cc23)cc1C(=O)Nc1ccc(CN2CCN(C)CC2)c(C(F)(F)F)c1 [IV-n-6] | 4230 nM | 4310 nM |

Reference: patent publication US11319322B2, “Substituted aryl ether compound, preparation method thereof, pharmaceutical composition and use thereof” (Xiamen University, priority 2017, dated 2022)
